Results from ChEMBL document CHEMBL1152643, “Tedanol: a potent anti-inflammatory ent-pimarane diterpene from the Caribbean Sponge Tedania ignis” (Bioorg Med Chem, 2009).
Calls of active or inactive are those of the source. The rule behind the calls is not given here.

Assays:
Assay type in all cases: functional, organism-based
Mus musculus [1] = assay: Antiinflammatory activity in ip dosed CD1 mouse assessed as inhibition of carrageenan-induced paw edema by hydroplethismometer
Mus musculus [2] = assay: Antiinflammatory activity against carrageenan-induced inflammation in CD1 mouse assessed as inhibition of MPO activity at 1 mg/kg, ip after 4 hrs; set-up: dose 1 mg/kg
Mus musculus [3] = assay: Antiinflammatory activity against carrageenan-induced inflammation in CD1 mouse assessed as inhibition of MPO activity at 1 mg/kg, ip after 48 hrs; set-up: dose 1 mg/kg
Mus musculus [4] = assay: Antiinflammatory activity against carrageenan-induced inflammation in CD1 mouse assessed as inhibition of COX2 activity in early edema phase at 1 mg/kg, ip after 2 to 4 hrs by Western blot; set-up: dose 1 mg/kg
Mus musculus [5] = assay: Antiinflammatory activity against carrageenan-induced inflammation in CD1 mouse assessed as inhibition of COX2 activity in second edema phase at 1 mg/kg, ip after 24 to 72 hrs by Western blot; set-up: dose 1 mg/kg
Mus musculus [6] = assay: Antiinflammatory activity against carrageenan-induced inflammation in CD1 mouse assessed as inhibition of COX1 activity in second edema phase at 1 mg/kg, ip after 2 to 4 hrs by Western blot; set-up: dose 1 mg/kg
Mus musculus [7] = assay: Antiinflammatory activity against carrageenan-induced inflammation in CD1 mouse assessed as inhibition of COX1 activity in second edema phase at 1 mg/kg, ip after 24 to 72 hrs by Western blot; set-up: dose 1 mg/kg
Mus musculus [8] = assay: Antiinflammatory activity against carrageenan-induced inflammation in CD1 mouse assessed as inhibition of iNOS expression at 1 mg/kg, ip after 2 hrs by Western blot; set-up: dose 1 mg/kg
Mus musculus [9] = assay: Antiinflammatory activity against carrageenan-induced inflammation in CD1 mouse assessed as inhibition of iNOS expression at 1 mg/kg, ip after 48 hrs by Western blot; set-up: dose 1 mg/kg

## CC1(C)[C@H](Br)CC[C@@]2(C)C3=CC[C@](C)([C@@H](Br)COS(=O)(=O)O)C[C@H]3[C@H](O)C[C@H]12
Mus musculus [1]
  Activity: Dose-dependent effect
Mus musculus [2]
  Activity: Active
Mus musculus [3]
  Activity: Active
Mus musculus [4]
  Activity: Active
Mus musculus [5]
  Activity: Active
Mus musculus [6]
  Activity: inactive
Mus musculus [7]
  Activity: Active
Mus musculus [8]
  Activity: Active
Mus musculus [9]
  Activity: Active
